Holding throughout (assay type): cell-based
Assay [1] has as its system Human pancreatic cancer cell CFPAC-1. Description: CCK-8 cell proliferation assay, CFPAC-1. Particulars: CFPAC-1 cells, CCK-8, 24 hrs with drug, OD 450 nm. On the procedure: (§1) The effect of samples on the proliferation of human tumor cells in vitro was determined by CCK-8 cell proliferation assay.
(§2) The cells were assayed through a method including the following steps:
(§3) 1) The cells were digested, counted, and prepared into a cell suspension in a corresponding culture medium (Table 1) (5×10^4 cells/ml for CFPAC-1 and RPMI 8226, and 3.5×10^4 cells/ml for rest cells). The cell suspension was added to each well of a 96-well plate in 100 μl well.
(§4) 2) Then the 96-well plate was incubated for 24 hrs in an incubator at 37° C. and 5% CO2.
(§5) 3) The drug was diluted with the culture medium to the required working concentration. 100 μl of the corresponding drug containing medium was added to each well. A negative control group (added with drug-free culture medium) was also set.
(§6) 4) Then the 96-well plate was incubated for 24 hrs in an incubator at 37° C. and 5% CO2.
(§7) 5) The 96-well plate was stained with CCK-8, and The OD value was determined at λ=450 nm.
(§8) a) 10 μl of CCK-8 was added to each well, and incubated in the incubator for another 2-3 hrs.
(§9) b) The content was mixed uniformly by shaking gently on a shaker for 10 min, and the bubbles in the 96-well plate were removed.
(§10) 6) The inhibition rate in each group was calculated.
For orientation: Formazan colour is commonly taken as a measure of viable cells.

Assay [2] deals with Human lung adenocarcinoma cell A549. Description: CCK-8 cell proliferation assay, A549. Particulars: A549 cells, CCK-8, 24 hrs with drug, OD 450 nm. On the procedure: as §1, §2, §3, §4, §5, §6, §7, §8, §9, §10
Assay [3] concerns Human esophageal cancer cell TE-1. Description: CCK-8 cell proliferation assay, TE-1. Particulars: TE-1 cells, CCK-8, 24 hrs with drug, OD 450 nm. On the procedure: as §1, §2, §3, §4, §5, §6, §7, §8, §9, §10
Assay [4] concerns Human colon cancer cell HCT-116. Description: CCK-8 cell proliferation assay, HCT116. Particulars: HCT116 cells, CCK-8, 24 hrs with drug, OD 450 nm. On the procedure: as §1, §2, §3, §4, §5, §6, §7, §8, §9, §10
For assay [5], the system named is Human hepatoma cell HepG2. Description: CCK-8 cell proliferation assay, HepG2. Conditions: HepG2 cells, CCK-8, 24 hrs with drug, OD 450 nm. As for the experimental part: as §1, §2, §3, §4, §5, §6, §7, §8, §9, §10
In assay [6] the test system is Human gastric cancer cell MKN45. Description: CCK-8 cell proliferation assay, MKN-45. Conditions: MKN-45 cells, CCK-8, 24 hrs with drug, OD 450 nm. On the procedure:
as §1, §2, §3, §4, §5, §6, §7, §8, §9, §10

The subject of assay [7] is Human multiple myeloma cell RPMI 8226. Description: CCK-8 cell proliferation assay, RPMI8226. Conditions: RPMI8226 cells, CCK-8, 24 hrs with drug, OD 450 nm. On the procedure: as §1, §2, §3, §4, §5, §6, §7, §8, §9, §10

The values below come from patent publication US12291515B2, “Pyrrolidine derivative and use thereof” (Rushi Biotech (Hangzhou) Co., Ltd, priority 2021, dated 2025).

As usually defined, the IC50 is the midpoint of a concentration-inhibition curve. The low end stands for higher potency, the high end for lower potency. Take `O=C(NCCCCCC1CCN(C(=O)c2ccccc2)C1)Nc1ccncc1` (centres unmarked) [BSS-TP007, 1-(5-(1-(benzoyl)pyrrolidin-3-yl)pentyl)-2-(4-pyridinyl)urea]: the half-maximal inhibitory concentration (IC50) in assay [1] came out at 28 nM; in assay [2], 31 nM; in assay [3], 76 nM; in assay [4], 33 nM; in assay [5], 69 nM; in assay [6] it was 57 nM. For the same compound, half-maximal inhibition in assay [7] (IC50) required 17 nM.
Take `O=C(NCCCCCC1CCN(C(=O)c2cccs2)C1)Nc1ccncc1` (centres unmarked) [BSS-TP008, 1-(5-(1-(2-thienylformyl)pyrrolidin-3-yl)pentyl)-2-(4-pyridinyl)urea]: the IC50 in assay [1] was found to be 22 nM; in assay [2], 55 nM; in assay [3], 58 nM; in assay [4], 77 nM; in assay [5] it was 51 nM; in assay [6] it was 43 nM. Also, in assay [7], it took 33 nM to reach half-maximal inhibition (IC50).
Consider `COc1cccc(OC)c1C(=O)N1CCC(CCCCCNC(=O)Nc2ccncc2)C1` (centres unmarked) [BSS-TP009, 1-(5-(1-(2,6-dimethoxybenzoyl)pyrrolidin-3-yl)pentyl)-2-(4-pyridinyl) urea], for which the IC50 in assay [1] stood at 39 nM; in assay [2], 29 nM; in assay [3], 49 nM; in assay [4] it was 21 nM; in assay [5], 46 nM; in assay [6], 63 nM. This compound also registered an IC50 in assay [7] of 26 nM.
`O=C(NCCCCCC1CCN(C(=O)c2ccc[nH]2)C1)Nc1ccncc1` (centres unmarked) [BSS-TP010, 1-(5-(1-(2-pyrrolylformyl)pyrrolidin-3-yl)pentyl)-2-(4-pyridinyl)urea]: the IC50 in assay [1] was determined as 38 nM; in assay [2], 36 nM; in assay [3] it was 42 nM; in assay [4] it was 25 nM; in assay [5], 41 nM; in assay [6], 34 nM. For the same compound, 20 nM corresponded to half-maximal inhibition in assay [7] (IC50).
As to `O=C(NCCCCCC1CCN(C(=O)c2ccco2)C1)Nc1ccncc1` (centres unmarked) [BSS-TP011, 1-(5-(1-(furoyl)pyrrolidin-3-yl)pentyl)-2-(4-pyridinyl)urea], the half-inhibitory concentration (IC50) in assay [1] was 29 nM; in assay [2] it was 33 nM; in assay [3] it was 81 nM; in assay [4], 71 nM; in assay [5] it was 77 nM; in assay [6] it was 36 nM. The same compound displayed a half-maximal inhibitory concentration (IC50) in assay [7] of 32 nM.
Take `O=C(NCCCCCC1CCN(C(=O)C2CCCO2)C1)Nc1ccncc1` (centres unmarked) [BSS-TP012, 1-(5-(1-(2-tetrahydrofurylformyl)pyrrolidin-3-yl)pentyl)-2-(4-pyridinyl)urea]: the IC50 in assay [1] is 38 nM; in assay [2], 67 nM; in assay [3] it was 137 nM; in assay [4] it was 51 nM; in assay [5] it was 124 nM; in assay [6] it was 59 nM. This compound also had an IC50 in assay [7] of 30 nM.
As for `O=C(NCCCCCC1CCN(C(=O)C2CCCS2)C1)Nc1ccncc1` (centres unmarked) [BSS-TP013, 1-(5-(1-(2-tetrahydrothienylformyl)pyrrolidin-3-yl)pentyl)-2-(4-pyridinyl)urea], the 50% inhibitory concentration (IC50) in assay [1] stood at 41 nM; in assay [2], 81 nM; in assay [3], 98 nM; in assay [4], 68 nM; in assay [5], 133 nM; in assay [6], 73 nM. In assay [7], this compound yielded an IC50 of 45 nM.
For the compound `O=C(NCCCCCC1CCN(C(=O)C2CCCN2)C1)Nc1ccncc1` (centres unmarked) [BSS-TP014, 1-(5-(1-(2-pyrrolidinylformyl)pyrrolidin-3-yl)pentyl)-2-(4-pyridinyl)urea], the half-inhibitory concentration (IC50) is 51 nM in assay [1]; 117 nM in assay [2]; 82 nM in assay [3]; 62 nM in assay [4]; 89 nM in assay [5]; 91 nM in assay [6]. Inhibition in assay [7] was half-maximal at 50 nM (IC50).
For the compound `O=C(NCCCCCC1CCN(C(=O)c2ccccc2)C1)Nc1ccnc(F)c1` (centres unmarked) [BSS-TP015], the concentration for half-maximal inhibition (IC50) came out at 28 nM in assay [1]; 31 nM in assay [2]; 57 nM in assay [3]; 43 nM in assay [4]; 39 nM in assay [5]; 33 nM in assay [6]. This compound displayed a 50% inhibitory concentration (IC50) in assay [7] of 22 nM.
Take `COc1cccc(OC)c1C(=O)N1CCC(CCCCCNC(=O)Nc2ccnc(F)c2)C1` (centres unmarked) [BSS-TP016]: the half-inhibitory concentration (IC50) in assay [1] turned out to be 32 nM; in assay [2], 30 nM; in assay [3], 55 nM; in assay [4], 41 nM; in assay [5], 59 nM; in assay [6] it was 46 nM. The compound also registered an IC50 in assay [7] of 30 nM.
For the compound `O=C(NCCCCCC1CCN(C(=O)c2ccc[nH]2)C1)Nc1ccnc(F)c1` (centres unmarked) [BSS-TP017], the half-maximal inhibitory concentration (IC50) in assay [1] amounted to 41 nM; in assay [2] it was 41 nM; in assay [3], 69 nM; in assay [4], 57 nM; in assay [5] it was 77 nM; in assay [6], 55 nM. The compound also registered a concentration for half-maximal inhibition (IC50) in assay [7] of 42 nM.
For the compound `O=C(NCCCCCC1CCN(C(=O)c2ccco2)C1)Nc1ccnc(F)c1` (centres unmarked) [BSS-TP018], the 50% inhibitory concentration (IC50) in assay [1] came out at 33 nM; in assay [2], 38 nM; in assay [3], 88 nM; in assay [4], 51 nM; in assay [5] it was 61 nM; in assay [6], 39 nM. The same compound registered an IC50 in assay [7] of 38 nM.
For the compound `O=C(NCCCCCC1CCN(C(=O)c2cccs2)C1)Nc1ccnc(F)c1` (centres unmarked) [BSS-TP019], the IC50 is 49 nM in assay [1]; 72 nM in assay [2]; 132 nM in assay [3]; 39 nM in assay [4]; 85 nM in assay [5]; 71 nM in assay [6]. Moreover, half-maximal inhibition in assay [7] (IC50) was put at 44 nM.
Turning to `O=C(NCCCCCC1CCN(C(=O)C2CCCN2)C1)Nc1ccnc(F)c1` (centres unmarked) [BSS-TP020], the IC50 worked out at 34 nM in assay [1]; 93 nM in assay [2]; 91 nM in assay [3]; 47 nM in assay [4]; 49 nM in assay [5]; 52 nM in assay [6]. In addition, the 50% inhibitory concentration (IC50) in assay [7] is 33 nM.
`O=C(NCCCCCC1CCN(C(=O)c2ccccc2)C1)Nc1cc(F)nc(F)c1` (centres unmarked) [BSS-TP021]: the IC50 in assay [1] came to 31 nM; in assay [2], 33 nM; in assay [3], 65 nM; in assay [4], 77 nM; in assay [5] it was 42 nM; in assay [6], 65 nM. In assay [7], this compound came in with an IC50 of 42 nM.
Turning to `O=C(NCCCCCC1CCN(C(=O)c2ccccc2)C1)Nc1cccnc1` (centres unmarked) [BSS-TP023, 1-(5-(1-(benzoyl)pyrrolidin-3-yl)pentyl)-2-(3-pyridinyl)urea], the 50% inhibitory concentration (IC50) worked out at 46 nM in assay [1]; 53 nM in assay [2]; 102 nM in assay [3]; 69 nM in assay [4]; 72 nM in assay [5]; 76 nM in assay [6]. The IC50 in assay [7] turned out to be 42 nM.
With `O=C(NCCCCCC1CCN(C(=O)c2cccs2)C1)Nc1cccnc1` (centres unmarked) [BSS-TP024, 1-(5-(1-(2-thienylformyl)pyrrolidin-3-yl)pentyl)-2-(3-pyridinyl)urea], the IC50 in assay [1] is 39 nM; in assay [2] it was 59 nM; in assay [3], 111 nM; in assay [4], 73 nM; in assay [5] it was 74 nM; in assay [6], 81 nM. For the same compound, in assay [7], half-maximal inhibition (IC50) was put at 49 nM.
On to `O=C(NCCCCCC1CCN(C(=O)c2cc3ccccc3[nH]2)C1)Nc1ccncc1` (centres unmarked) [BSS-TP025, 1-(5-(1-(2-indolylformyl)pyrrolidin-3-yl)pentyl)-2-(4-pyridinyl)urea], for which the IC50 in assay [1] was 37 nM; in assay [2] it was 62 nM; in assay [3], 65 nM; in assay [4], 54 nM; in assay [5], 77 nM; in assay [6], 53 nM. This compound also displayed a half-maximal inhibitory concentration (IC50) in assay [7] of 40 nM.
As for `O=C(NCCCCCC1CCN(C(=O)c2cc3ccccc3o2)C1)Nc1ccncc1` (centres unmarked) [BSS-TP026, 1-(5-(1-(2-benzofurylformyl)pyrrolidin-3-yl)pentyl)-2-(4-pyridinyl)urea], the concentration for half-maximal inhibition (IC50) in assay [1] stood at 42 nM; in assay [2], 69 nM; in assay [3], 72 nM; in assay [4] it was 92 nM; in assay [5], 83 nM; in assay [6], 71 nM. Also, the IC50 in assay [7] was 51 nM.
Take `O=C(NCCCCCC1CCN(C(=O)C2Cc3ccccc3O2)C1)Nc1ccncc1` (centres unmarked) [BSS-TP027, 1-(5-(1-(2-benzotetrahydrofurylformyl)pyrrolidin-3-yl)pentyl)-2-(4-pyridinyl)urea]: the IC50 in assay [1] worked out at 59 nM; in assay [2], 88 nM; in assay [3] it was 93 nM; in assay [4], 92 nM; in assay [5], 102 nM; in assay [6] it was 65 nM. The compound also showed a half-maximal inhibitory concentration (IC50) in assay [7] of 55 nM.
